Structures can show the parent of a compound that is named as a salt.

The target in this test is 5-HT5A (Homo sapiens, UniProt P47898). Description: Affinity of selected compounds for 5-HT5A (Ki). The test is classed as binding. The protocol: In both assays, different concentrations of the test substances are used and the Ki and IC50 values are determined.
Sequence of 5-HT5A (P47898 whole entry): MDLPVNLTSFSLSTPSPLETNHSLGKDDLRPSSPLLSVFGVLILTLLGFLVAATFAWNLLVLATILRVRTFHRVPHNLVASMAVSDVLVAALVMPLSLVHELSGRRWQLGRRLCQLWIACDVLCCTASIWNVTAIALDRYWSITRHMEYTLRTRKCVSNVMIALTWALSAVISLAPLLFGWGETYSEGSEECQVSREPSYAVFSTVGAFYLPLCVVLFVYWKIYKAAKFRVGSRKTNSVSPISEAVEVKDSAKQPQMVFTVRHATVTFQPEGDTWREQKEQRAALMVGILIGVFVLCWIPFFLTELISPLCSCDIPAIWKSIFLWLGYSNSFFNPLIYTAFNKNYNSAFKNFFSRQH
Molecule `COc1ccccc1CN1Cc2cc(Cl)ccc2N=C1N` [Example 102, 6-Chloro-3-(2-methoxybenzyl)-3,4-dihydroquinazolin-2-amine] yielded an inhibition constant (Ki) below 300 nM.

On to `COc1ccccc1Cc1cc2cc3c(cc2nc1N)OCO3` [Example 14, 7-(2-Methoxybenzyl)[1.3]dioxolo[4.5-g]quinolin-6-amine], for which the inhibitory constant (Ki) was below 300 nM. `COc1cc(Cl)ccc1CN1Cc2ccccc2N=C1N` [Example 67, 3-(4-Chloro-2-methoxybenzyl)-3,4-dihydroquinazolin-2-amine hydrochloride]: the inhibitory constant (Ki) was below 300 nM. In turn, `COc1ccccc1CN1Cc2ccccc2N=C1N` [Example 64, 3-(2-Methoxybenzyl)-3,4-dihydroquinazolin-2-amine hydrochloride] returned a Ki below 300 nM. In the case of `COc1ccccc1CN1Cc2ccc(Cl)cc2N=C1N` [Example 65, 7-Chloro-3-(2-methoxybenzyl)-3,4-dihydroquinazolin-2-amine] it was below 300 nM; in that of `COc1cccc(OC)c1Cc1cc2ncccc2nc1N` [Example 46, 3-(2,6-Dimethoxybenzyl)-1,5-naphthyridin-2-amine], below 300 nM; in that of `COc1ccccc1Cc1cc2ccc(Cl)cc2nc1N` [Example 15, 7-Chloro-3-(2-methoxybenzyl)quinolin-2-amine], below 300 nM. The molecule `COc1ccccc1Cc1cc2cc(F)c(F)cc2nc1N` [Example 41, 6,7-Difluoro-3-(2-methoxybenzyl)quinolin-2-amine] had a Ki below 300 nM. In turn, `COc1ccccc1CN1Cc2ccc([N+](=O)[O-])cc2N=C1N` [Example 91, 3-(2-Methoxybenzyl)-7-nitro-3,4-dihydroquinazolin-2-amine] gave a Ki below 300 nM.

As to `COc1cccc(F)c1Cc1cc2ccc(F)cc2nc1N` [Example 42, 7-Fluoro-3-(2-fluoro-6-methoxybenzyl)quinolin-2-amine], the inhibitory constant (Ki) was below 300 nM. In the case of `COc1ccccc1CN1Cc2ccccc2N=C1NCc1cccnc1` [Example 75, 3-(2-Methoxybenzyl)-2-[(pyridin-3-ylmethyl)amino]-3,4-dihydroquinazoline acetate] it was below 10000 nM; in that of `COc1ccccc1Cc1cc2ncccc2nc1N` [Example 38, 3-(2-Methoxybenzyl)-1,5-naphthyridin-2-amine], below 300 nM; in that of `COc1ccccc1CN1Cc2ccccc2N=C1N1CCN(Cc2ccccc2)CC1` [Example 80, 2-(4-Benzylpiperazin-1-yl)-3-(2-methoxybenzyl)-3,4-dihydroquinazoline fumarate], below 10000 nM. In the case of `CCOc1ccc2nc(N)c(Cc3c(OC)cccc3OC)cc2c1` [Example 32, 6-Ethoxy-3-(2,6-dimethoxybenzyl)quinolin-2-amine] it was below 300 nM; in that of `COc1cccc(F)c1Cc1cc2cnccc2nc1N` [Example 35, 3-(2-Fluoro-6-methoxybenzyl)-1,6-naphthyridin-2-amine], below 300 nM. `COc1ccccc1Cc1cc2cc(N3CCOCC3)c(F)cc2nc1N` [Example 50, 7-Fluoro-3-(2-methoxybenzyl)-6-morpholin-4-ylquinolin-2-amine] registered a Ki below 300 nM. Take `COc1ccccc1CN1Cc2ccccc2N=C1NCc1cccs1` [Example 100, 3-(2-Methoxybenzyl)-N-(2-thienylmethyl)-3,4-dihydroquinazolin-2-amine hydrochloride]: the inhibition constant Ki was below 10000 nM.

Regarding `Nc1nc2ccccc2cc1Cc1ccccc1O` [Example 25, 2-[(2-Aminoquinolin-3-yl)methyl]phenol], the Ki was below 300 nM. Under `COc1cccc(OC)c1CN1Cc2ccccc2N=C1NCc1ccccn1` [Example 94, [3-(2,6-Dimethoxybenzyl)-3,4-dihydroquinazolin-2-yl]pyridin-2-ylmethylamine hydrochloride] stands below 10000 nM; under `COc1ccccc1CN1Cc2ccc(C(F)(F)F)cc2N=C1N` [Example 66, 3-(2-Methoxybenzyl)-7-(trifluoromethyl)-3,4-dihydroquinazolin-2-amine hydrochloride], below 300 nM; under `COc1ccccc1CN1Cc2ccccc2N=C1N1CCNCC1` [Example 78, 3-(2-Methoxybenzyl)-2-piperazin-1-yl-3,4-dihydroquinazoline hydrochloride], below 10000 nM. Regarding “3-(2-Methoxybenzyl)-N-(1-naphthylmethyl)-3,4-dihydroquinazolin-2-amine hydrochloride [Example 99]”, the Ki was below 10000 nM. `COc1cccc(OC)c1CN1Cc2ccc(Nc3ccccc3)cc2N=C1N` [Example 88, 7-Anilino-3-(2,6-dimethoxybenzyl)-3,4-dihydroquinazolin-2-aminium acetate] came in with a Ki below 300 nM. Under `CC(C)Oc1cccc(F)c1Cc1cc2ccccc2nc1N` [Example 56, 3-(2-Fluoro-6-isopropoxybenzyl)quinolin-2-amine hydrochloride] stands below 300 nM; under `COc1cccc(OC)c1CN1Cc2cc(Cl)ccc2N=C1N` [Example 89, 6-Chloro-3-(2,6-dimethoxybenzyl)-3,4-dihydroquinazolin-2-amine], below 300 nM; under `COc1cccc(OC(C)C)c1Cc1cc2ccccc2nc1N` [Example 5, 3-(2-Isopropoxy-6-methoxybenzyl)quinolin-2-amine], below 300 nM. Regarding `COc1ccccc1Cc1cc2cc(F)ccc2nc1N` [Example 18, 6-Fluoro-3-(2-methoxybenzyl)quinolin-2-amine], the Ki is below 300 nM.

The molecule `CCOc1cccc(OC)c1Cc1cc2ccccc2nc1N` [Example 4, 3-(2-Ethoxy-6-methoxybenzyl)quinolin-2-amine] yielded a Ki below 300 nM. Under `COc1ccc(CN2Cc3ccccc3N=C2N)c(OC)c1` [Example 70, 3-(2,4-Dimethoxybenzyl)-3,4-dihydroquinazolin-2-amine] stands below 10000 nM; under `COc1cccc(F)c1Cc1cc2cc(F)ccc2nc1N` [Example 24, 6-Fluoro-3-(2-fluoro-6-methoxybenzyl)quinolin-2-amine], below 300 nM; under `COc1cccc(OC)c1CN1Cc2ccc(Br)cc2N=C1N` [Example 81, 7-Bromo-3-(2,6-dimethoxybenzyl)-3,4-dihydroquinazolin-2-amine], below 300 nM.

On to `Nc1nc2ccccc2cc1Cc1ccccc1OC(F)F` [Example 61, 3-[2-(difluoromethoxy)benzyl]quinolin-2-amine], for which the inhibition constant (Ki) was below 300 nM. Under `COc1cccc(OC)c1CN1Cc2ccc(-c3ccc(OC(F)(F)F)cc3)cc2N=C1N` [Example 87, 3-(2,6-Dimethoxybenzyl)-7-[4-trifluoromethoxy)phenyl]-3,4-dihydroquinazoline-2-aminium acetate] stands below 300 nM; under `COc1cccc(OC)c1CN1Cc2ccc(-c3ccccc3)cc2N=C1N` [Example 82, 3-(2,6-Dimethoxybenzyl)-7-phenyl-3,4-dihyroquinazoli-2-aminium acetate], below 300 nM.

Take `CCOc1ccccc1Cc1cc2cc(N3CCOCC3)ccc2nc1N` [Example 62, 3-(2-Ethoxygenzyl)-6-morpholin-4-ylquinolin-2-amine monofumarate]: the Ki was below 300 nM. Under `COc1ccccc1CN1Cc2ccccc2N=C1NC1CCN(Cc2ccccc2)CC1` [Example 96, N-(1-Benzylpiperidin-4-yl)-3-(2-methoxybenzyl)-3,4-dihydroquinazolin-2-amine fumarate] stands below 10000 nM; under `COc1cccc(OC)c1Cc1cc2cc(F)ccc2nc1N` [Example 23, 3-(2,6-Dimethoxybenzyl)-6-fluoroquinolin-2-amine], below 300 nM; under `COc1cccc(Cl)c1Cc1cc2cc3c(cc2nc1N)OCO3` [Example 40, 7-(2-Chloro-6-methoxybenzyl)[1.3]dioxolo[4,5-g]quinolin-76-amine], below 300 nM. The molecule `COc1cccc(CN2Cc3ccccc3N=C2N)c1OC` [Example 71, 3-(2,3-Dimethoxybenzyl)-3,4-dihydroquinazolin-2-amine hydrochloride] came in with an inhibitory constant (Ki) below 10000 nM. Molecule `NC1=Nc2ccccc2CN1Cc1ccccc1O` [Example 72, 2-[(2-Aminoquinazolin-3(4H)-yl)methyl]phenol] registered a Ki below 10000 nM.

As to `COc1ccccc1Cc1cc2c(Cl)cccc2nc1N` [Example 19, 5-Chloro-3-(2-methoxybenzyl)quinolin-2-amine], the Ki is below 300 nM. Under `COc1ccccc1Cc1cc2cc(N3CCN(C)CC3)ccc2nc1N` [Example 48, 3-(2-Methoxybenzyl)-6-(4-methylpiperazin-1-yl)quinolin-2-amine bisfumarate] stands below 300 nM.

`COc1ccccc1CN1Cc2ccccc2N=C1NCc1cccc2ccccc12` [Example 98, 3-(2-Methoxybenzyl)-N-(1-naphthylmethyl)-3,4-dihydroquinazolin-2-amine hydrochloride] yielded an inhibition constant (Ki) below 10000 nM. In the case of `COc1ccccc1Cc1cc2cnccc2nc1N` [Example 33, 3-(2-Methoxybenzyl)-1,6-naphthyridin-2-amine] it was below 300 nM; in that of `COc1cccc(F)c1Cc1cc2cc(N3CCOCC3)ccc2nc1N` [Example 45, 3-(2-Methoxy-6-fluorobenzyl)-6-morpholin-4-ylquinolin-2-amine], below 300 nM; in that of `COc1ccccc1CN1Cc2ccccc2N=C1N1CCN(C)CC1` [Example 79, 3-(2-Methoxybenzyl)-2-(4-methylpiperazin-1-yl)-3,4-dihydroquinazoline fumarate], below 10000 nM.

For the molecule `COCCOc1ccc2nc(N)c(Cc3ccccc3OC)cc2c1` [Example 43, 3-(2-Methoxybenzyl)-6-(2-methoxyethoxy)quinolin-2-amine], the inhibitory constant (Ki) is below 300 nM.

For `COc1ccccc1Cc1cc2cc(Cl)ccc2nc1N` [Example 11], the inhibition constant (Ki) is below 300 nM. Regarding `COc1cccc(OC)c1CN1Cc2ccc(C)cc2N=C1N` [Example 84, 3-(2,6-Dimethoxybenzyl)-7-methyl-3,4-dihydroquinazolin-2-aminium acetate], the Ki is below 300 nM.

The molecule `COc1ccccc1Cc1cc2cccc(OC)c2nc1N` [Example 51, 8-Methoxy-3-(2-methoxybenzyl)quinolin-2-amine] returned an inhibition constant (Ki) below 300 nM. Under `NC1=Nc2ccccc2CN1Cc1ccccc1OC(F)(F)F` [Example 69, 3-[2-(Trifluoromethoxy)benzyl]-3,4-dihydroquinazolin-2-amine] stands below 300 nM.

For the origin of these results see patent publication US8686002B2, “Heterocyclic compounds and their use as binding partners for 5-HT5 receptors” (AbbVie Deutschland GmbH & Co. KG, priority 2005, dated 2014).
